Positions of bridges follow the written chain, without caps; N, C: chain ends. Non-standard residues stand in square brackets, D forms with d. Residues, ends and D or L forms follow the SMILES beside them.
Tests used:
human SSTR-3 = human SSTR-3 (Homo sapiens, UniProt P32745); assay: Somatostatin receptor binding assay, [125I-Tyr11]somatostatin-14, membranes of transfected CHO-K1 cells; conditions: 0.05 nM [125I-Tyr11]somatostatin-14, 30 min at 30° C., Ki=IC50/[1+(LC/LEC)], read-out: Ki hSSTR-3
human SSTR-5 = human SSTR-5 (Homo sapiens, UniProt P35346); assay: as above; conditions: 0.05 nM [125I-Tyr11]somatostatin-14, 30 min at 30° C., Ki=IC50/[1+(LC/LEC)], read-out: Ki hSSTR-5
human SSTR-5, sequence (P35346 whole entry): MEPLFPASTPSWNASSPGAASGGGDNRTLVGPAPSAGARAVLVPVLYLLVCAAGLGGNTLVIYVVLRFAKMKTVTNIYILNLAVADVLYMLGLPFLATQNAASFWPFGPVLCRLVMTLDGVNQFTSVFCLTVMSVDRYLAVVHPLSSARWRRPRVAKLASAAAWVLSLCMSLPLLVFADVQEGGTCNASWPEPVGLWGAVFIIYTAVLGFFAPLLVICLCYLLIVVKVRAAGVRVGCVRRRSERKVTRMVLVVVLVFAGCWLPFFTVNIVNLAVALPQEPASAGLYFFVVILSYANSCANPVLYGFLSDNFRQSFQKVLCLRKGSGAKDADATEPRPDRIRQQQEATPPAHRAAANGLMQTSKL

human SSTR-3, sequence (P32745 whole entry): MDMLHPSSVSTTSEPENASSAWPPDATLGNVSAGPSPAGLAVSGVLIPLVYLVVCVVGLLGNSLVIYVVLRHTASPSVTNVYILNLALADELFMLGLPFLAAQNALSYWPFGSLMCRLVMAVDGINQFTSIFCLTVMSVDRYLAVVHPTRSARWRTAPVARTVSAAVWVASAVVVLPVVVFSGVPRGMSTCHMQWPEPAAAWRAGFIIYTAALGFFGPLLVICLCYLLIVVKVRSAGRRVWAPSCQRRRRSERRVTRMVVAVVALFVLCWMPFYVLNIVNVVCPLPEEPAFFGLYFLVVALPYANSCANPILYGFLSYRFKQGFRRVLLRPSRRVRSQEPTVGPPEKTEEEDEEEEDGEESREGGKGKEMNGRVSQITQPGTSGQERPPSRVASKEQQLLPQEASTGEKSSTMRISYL

Compound: C[C@@H](O)[C@@H]1NC(=O)[C@H](CCCCN)NC(=O)[C@@H](Cc2c[nH]c3ccccc23)NC(=O)[C@H](Cc2ccccc2)NC(=O)[C@H](Cc2ccccc2)NC(=O)[C@@H](N)CSSC[C@@H](C(N)=O)NC(=O)[C@H](Cc2ccccc2)NC1=O [BIM-23268, H-Cys-Phe-Phe-D-Trp-Lys-Thr-Phe-Cys-NH2] (H-CFF[dW]KTFC-NH2; disulfide 1-8)
- Ki (human SSTR-3): 62 nM
- Ki (human SSTR-5): 0.38 nM

From patent US7238666B2, “Method of inhibiting fibrosis with a somatostatin agonist” (Societe de Conseils de Recherches et d'Applications …, priority 1996, dated 2007)
